pIC50: −log10 of the molar value.
Legend:
[1] = target: T1, Peptidyl-glycine alpha-amidating monooxygenase (Homo sapiens, UniProt P19021); test: Competitive inhibition of secreted PAM in human DMS53 cell culture medium using as(R)-Tyr-(S)-Val-Gly as substrate after 2 hrs by HPLC analysis; design: species or system DMS-53
T1 sequence (P19021 whole entry): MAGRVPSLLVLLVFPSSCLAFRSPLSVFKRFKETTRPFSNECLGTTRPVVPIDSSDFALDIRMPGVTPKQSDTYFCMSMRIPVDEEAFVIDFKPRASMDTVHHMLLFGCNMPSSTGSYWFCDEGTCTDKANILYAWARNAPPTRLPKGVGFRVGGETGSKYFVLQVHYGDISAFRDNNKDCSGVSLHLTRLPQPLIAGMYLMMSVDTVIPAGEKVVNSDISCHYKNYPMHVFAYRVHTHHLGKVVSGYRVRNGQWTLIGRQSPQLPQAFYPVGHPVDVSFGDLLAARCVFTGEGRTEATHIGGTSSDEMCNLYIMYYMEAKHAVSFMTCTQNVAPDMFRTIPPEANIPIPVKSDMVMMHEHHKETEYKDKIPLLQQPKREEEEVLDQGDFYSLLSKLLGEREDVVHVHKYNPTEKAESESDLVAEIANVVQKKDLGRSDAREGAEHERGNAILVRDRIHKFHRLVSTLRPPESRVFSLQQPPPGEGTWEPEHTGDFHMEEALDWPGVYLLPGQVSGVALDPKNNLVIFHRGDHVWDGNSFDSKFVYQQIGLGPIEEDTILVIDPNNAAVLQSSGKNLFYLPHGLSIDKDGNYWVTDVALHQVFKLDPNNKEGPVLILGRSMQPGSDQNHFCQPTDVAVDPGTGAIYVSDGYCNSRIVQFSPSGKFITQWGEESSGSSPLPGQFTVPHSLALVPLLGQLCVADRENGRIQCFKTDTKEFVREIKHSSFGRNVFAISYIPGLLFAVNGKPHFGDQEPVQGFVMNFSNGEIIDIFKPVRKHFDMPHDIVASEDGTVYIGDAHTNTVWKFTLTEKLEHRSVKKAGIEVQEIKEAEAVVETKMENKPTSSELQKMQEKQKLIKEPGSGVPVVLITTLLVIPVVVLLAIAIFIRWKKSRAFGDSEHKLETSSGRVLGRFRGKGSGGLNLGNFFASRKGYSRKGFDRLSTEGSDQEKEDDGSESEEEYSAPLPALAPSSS

[2] = target: T1, Peptidyl-glycine alpha-amidating monooxygenase; test: Competitive inhibition of PAM in human DMS53 cells using as(R)-Tyr-(S)-Val-Gly as substrate after 2 hrs by HPLC analysis; format: cell-based, DMS-53

pIC50 [1] | pIC50 [2] | Structure (SMILES)
2.96 | 2.96 | CC(=O)OCC(=O)O
2.80 | 2.96 | N[C@@H](Cc1ccccc1)C(=O)OCC(=O)O

From ChEMBL document CHEMBL2203217, “Prohormone-substrate peptide sequence recognition by peptidylglycine α-amidating monooxygenase and its reflection in increased glycolate inhibitor potency” (Bioorg Med Chem Lett, 2012)
